Test [1] has as its system CNE-2. Kind of test: Anticancer activity against human CNE-2 cells assessed as inhibition of cell growth. The test is classed as functional, cell-based.
A further test concerns KB. Kind of test: Anticancer activity against human KB cells assessed as inhibition of cell growth. The test is classed as functional, cell-based.
The subject of another test is CAL-27. Put plainly: Anticancer activity against human CAL-27 cells assessed as inhibition of cell growth. In kind it is functional, cell-based.
Test [2] has as its target Telomerase reverse transcriptase (Homo sapiens, UniProt O14746). Kind of test: Inhibition of telomerase activity in human CNE-2 cells. The test is classed as cell-based.
In test [3] the test system is CNE-2. Put plainly: Induction of apoptosis in human CNE-2 cells assessed as live cells at 0.5 uM incubated for 4 days by annexin V-FITC/PI double-staining method (reference value: 91.9%). The test is classed as functional. The conditions noted are these: time 4 day.
Test [4] relates to CNE-2. Put plainly: Induction of apoptosis in human CNE-2 cells assessed as early apoptotic cells at 0.5 uM incubated for 4 days by annexin V-FITC/PI double-staining method (reference value: 8%). The note with it: time 4 day. The test is classed as functional.
Test [5] has as its system CNE-2. Put plainly: Induction of apoptosis in human CNE-2 cells assessed as late apoptotic cells at 0.5 uM incubated for 4 days by annexin V-FITC/PI double-staining method (reference value: 0.1%). The test is classed as functional. The note with it: time 4 day.
The test system of test [6] is CNE-2. Kind of test: Induction of apoptosis in human CNE-2 cells assessed as dead cells at 0.5 uM incubated for 4 days by annexin V-FITC/PI double-staining method (reference value: 0%). The test is classed as functional. The note with it: time 4 day.
Test [7] has as its system CNE-2. Kind of test: Induction of apoptosis in human CNE-2 cells assessed as live cells at 1 uM incubated for 4 days by annexin V-FITC/PI double-staining method (reference value: 91.9%). The test is classed as functional. The conditions noted are these: time 4 day.
Test [8] has as its system CNE-2. Put plainly: Induction of apoptosis in human CNE-2 cells assessed as early apoptotic cells at 1 uM incubated for 4 days by annexin V-FITC/PI double-staining method (reference value: 8%). The conditions noted are these: time 4 day. The test is classed as functional.
Test [9] concerns CNE-2. Kind of test: Induction of apoptosis in human CNE-2 cells assessed as late apoptotic cells at 1 uM incubated for 4 days by annexin V-FITC/PI double-staining method (reference value: 0.1%). The test is classed as functional. The note with it: time 4 day.
Test [10] deals with CNE-2. Put plainly: Induction of apoptosis in human CNE-2 cells assessed as dead cells at 1 uM incubated for 4 days by annexin V-FITC/PI double-staining method (reference value: 0%). In kind it is functional. The conditions noted are these: time 4 day.
Test [11] deals with CNE-2. Put plainly: Anticancer activity against human CNE-2 cells assessed as reduction in telomer length at 1 uM incubated for 8 days by TRF analysis. The test is classed as functional. The note with it: time 8 day.
In test [12] the test system is CNE-2. Kind of test: Anticancer activity against human CNE-2 cells assessed as shortening of telomer length at 0.5 uM incubated for 8 days by TRF analysis. In kind it is functional, cell-based. The note with it: time 8.0 day.
For test [13], the system named is CNE-2. Kind of test: Anticancer activity against human CNE-2 cells assessed as induction of senescence by measuring shortening of telomer length at 0.5 to 1 uM incubated for 8 days by TRF analysis. In kind it is functional, cell-based. The conditions noted are these: dose 0.5-1 µM, time 8.0 day.

Active and inactive are the calls of the source. The rule behind the calls is not given here. Some results are limits rather than exact numbers.

Sequence of Telomerase reverse transcriptase (O14746 whole entry): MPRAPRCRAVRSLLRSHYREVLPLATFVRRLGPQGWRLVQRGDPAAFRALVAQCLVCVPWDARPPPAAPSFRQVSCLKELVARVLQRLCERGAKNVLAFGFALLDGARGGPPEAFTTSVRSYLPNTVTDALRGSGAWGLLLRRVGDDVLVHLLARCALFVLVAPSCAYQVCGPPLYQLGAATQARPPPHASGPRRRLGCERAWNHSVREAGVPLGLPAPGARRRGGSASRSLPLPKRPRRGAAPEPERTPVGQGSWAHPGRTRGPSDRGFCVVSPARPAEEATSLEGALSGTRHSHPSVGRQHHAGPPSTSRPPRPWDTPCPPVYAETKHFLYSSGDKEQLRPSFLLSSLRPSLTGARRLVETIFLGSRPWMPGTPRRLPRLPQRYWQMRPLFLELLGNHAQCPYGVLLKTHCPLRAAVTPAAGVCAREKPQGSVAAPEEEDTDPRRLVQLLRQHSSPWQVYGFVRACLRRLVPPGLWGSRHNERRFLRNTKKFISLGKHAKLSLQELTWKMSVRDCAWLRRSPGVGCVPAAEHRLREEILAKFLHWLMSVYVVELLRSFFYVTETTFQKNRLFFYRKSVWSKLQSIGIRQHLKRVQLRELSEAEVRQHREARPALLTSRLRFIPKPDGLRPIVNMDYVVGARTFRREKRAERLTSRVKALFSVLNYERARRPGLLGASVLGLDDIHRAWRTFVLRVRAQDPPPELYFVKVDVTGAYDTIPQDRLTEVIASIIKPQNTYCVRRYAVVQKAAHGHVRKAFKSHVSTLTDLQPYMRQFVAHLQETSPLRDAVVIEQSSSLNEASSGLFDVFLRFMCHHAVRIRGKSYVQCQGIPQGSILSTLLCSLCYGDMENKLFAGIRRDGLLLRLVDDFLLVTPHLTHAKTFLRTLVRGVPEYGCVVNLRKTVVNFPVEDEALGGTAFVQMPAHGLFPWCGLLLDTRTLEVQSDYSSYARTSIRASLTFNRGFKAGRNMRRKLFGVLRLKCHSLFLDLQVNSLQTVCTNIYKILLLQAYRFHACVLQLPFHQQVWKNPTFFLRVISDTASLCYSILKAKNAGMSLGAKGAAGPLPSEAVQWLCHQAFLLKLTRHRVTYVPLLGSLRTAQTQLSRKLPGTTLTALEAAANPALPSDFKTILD

For orientation: IC50 means the concentration that gives 50% inhibition. Take `Nc1nc(-c2cccc(OS(=O)(=O)c3ccccc3)c2)nc2c1c(=O)oc1ccccc12`: the IC50 was 3.44 µM in the test with CNE-2 [1], 6.74 µM with KB, 2.58 µM in the test on CAL-27 and 3.16 µM in test [2].
Consider `CS(=O)(=O)Oc1cccc(-c2nc(N)c3c(=O)oc4ccccc4c3n2)c1`, for which the IC50 in the test on CNE-2 [1] is above 100 µM; with KB, above 100 µM; with CAL-27, above 100 µM; in test [2], 58.6 µM.
Consider `COc1ccc(S(=O)(=O)Oc2cccc(-c3nc(N)c4c(=O)oc5ccccc5c4n3)c2)cc1OC`, for which the IC50 with CNE-2 [1] came to 20.6 µM; in the test with KB, 29.7 µM; in the test with CAL-27, 17.6 µM; in test [2], 6.32 µM.
The like results for `Nc1nc(-c2cccc(OS(=O)(=O)c3cccs3)c2)nc2c1c(=O)oc1ccccc12` were, in that order, 4.24 µM, 5.62 µM, 10.1 µM and 7.35 µM.
With `Nc1nc(-c2cccc(OS(=O)(=O)c3ccc([N+](=O)[O-])cc3)c2)nc2c1c(=O)oc1ccccc12`, the IC50 in the test with CNE-2 [1] is 16.2 µM; in the test on KB it was 17 µM; in the test with CAL-27 it was 3.54 µM; in test [2] it was 21.1 µM.
Regarding `COC(=O)c1ccc(S(=O)(=O)Oc2cccc(-c3nc(N)c4c(=O)oc5ccccc5c4n3)c2)s1`, the figures for the IC50 in the test with CNE-2 [1], in the test with KB and with CAL-27 were above 100 µM, 38.4 µM and 47.5 µM, respectively.
For `Nc1nc(-c2cccc(OS(=O)(=O)c3ccc(Br)s3)c2)nc2c1c(=O)oc1ccccc12`, in that order: 18.6 µM, 36.2 µM and 18.3 µM.
For `Nc1nc(-c2cccc(OS(=O)(=O)c3ccc(C(F)(F)F)cc3)c2)nc2c1c(=O)oc1ccccc12`, in that order: 2.34 µM, 7.35 µM and 4.32 µM.
For `COc1cccc2c1C(=O)c1c(O)c3c(c(O)c1C2=O)C[C@@](O)(C(=O)CO)C[C@@H]3O[C@H]1C[C@H](N)[C@H](O)[C@H](C)O1` [DOXORUBICIN], in that order: 2.12 µM, 3.04 µM and 1.56 µM.
Regarding `Nc1nc(-c2cccc(OS(=O)(=O)c3ccc(F)cc3)c2)nc2c1c(=O)oc1ccccc12`, the results for the IC50 with CNE-2 [1], in the test with KB and in the test with CAL-27 were 4.23 µM, 11.6 µM and 4.91 µM, respectively.
For `Nc1nc(-c2cccc(OS(=O)(=O)c3ccc(Cl)s3)c2)nc2c1c(=O)oc1ccccc12`, in that order: 14.6 µM, 20.9 µM and 11.2 µM.
Take `CN(C)c1ccc(S(=O)(=O)Oc2cccc(-c3nc(N)c4c(=O)oc5ccccc5c4n3)c2)cc1`: the IC50 in the test with CNE-2 [1] was determined as 1.92 µM; in the test on KB, 3.72 µM; in the test with CAL-27, 1.97 µM; in [2] it was 0.82 µM. The Activity with CNE-2 [3] was determined as 65%; in the test with CNE-2 [4], 28.2%; with CNE-2 [5], 6.7%; in the test on CNE-2 [6], 0.1%; in the test on CNE-2 [7], 45.2%; in the test with CNE-2 [8] it was 39.5%. The Activity in the test with CNE-2 [9] amounted to 15.4%; in the test on CNE-2 [10], 0%; in the test with CNE-2 [11], 0.8 kilobase. Besides, the result with CNE-2 [12] and with CNE-2 [13] was Active.
On to `Nc1nc(-c2cccc(OS(=O)(=O)c3ccc(Br)cc3)c2)nc2c1c(=O)oc1ccccc12`, for which the IC50 in the test on CNE-2 [1] stood at 11.1 µM; in the test on KB, 15.8 µM; with CAL-27, 18.1 µM.
For `COc1ccc(S(=O)(=O)Oc2cccc(-c3nc(N)c4c(=O)oc5ccccc5c4n3)c2)cc1`, in that order: 16.6 µM, 18.6 µM and 9.63 µM.

The values are drawn from ChEMBL document CHEMBL5260819, “Design and synthesis of 2-phenylpyrimidine coumarin derivatives as anticancer agents” (Bioorg Med Chem Lett, 2017).
